Activity calls are given as the source filed them. No cut-off for these calls is given here.
Columns and labels:
[1] = biological target: T1, High affinity nerve growth factor receptor (Homo sapiens, UniProt P04629)
Target sequence in this assay (P04629 whole entry): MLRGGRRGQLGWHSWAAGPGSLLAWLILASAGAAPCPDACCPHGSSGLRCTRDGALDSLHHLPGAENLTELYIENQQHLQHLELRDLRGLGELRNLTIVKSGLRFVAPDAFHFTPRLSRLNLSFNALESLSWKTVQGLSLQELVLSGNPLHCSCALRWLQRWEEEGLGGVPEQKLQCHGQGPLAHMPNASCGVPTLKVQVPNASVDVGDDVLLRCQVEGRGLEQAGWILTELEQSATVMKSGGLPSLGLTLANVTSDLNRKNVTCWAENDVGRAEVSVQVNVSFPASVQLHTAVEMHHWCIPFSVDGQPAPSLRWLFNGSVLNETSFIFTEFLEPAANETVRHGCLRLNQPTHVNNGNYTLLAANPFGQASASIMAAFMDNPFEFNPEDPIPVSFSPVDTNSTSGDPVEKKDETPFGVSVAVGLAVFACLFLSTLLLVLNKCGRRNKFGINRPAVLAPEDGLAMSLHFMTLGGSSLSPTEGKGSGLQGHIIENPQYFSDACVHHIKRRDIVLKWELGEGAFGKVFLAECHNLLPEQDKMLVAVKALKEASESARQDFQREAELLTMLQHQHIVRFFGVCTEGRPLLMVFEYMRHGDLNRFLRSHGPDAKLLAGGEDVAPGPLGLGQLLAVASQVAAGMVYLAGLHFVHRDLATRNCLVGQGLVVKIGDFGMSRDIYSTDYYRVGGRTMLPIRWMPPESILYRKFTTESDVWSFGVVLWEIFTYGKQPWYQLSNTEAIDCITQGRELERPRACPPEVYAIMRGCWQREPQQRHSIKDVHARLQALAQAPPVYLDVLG
Description: Inhibition of human TrkA expressed in human U2OS cells assessed as inhibition of NGF-induced maximum response after 1 hr by beta-galactosidase assay

[2] = biological target: T1, High affinity nerve growth factor receptor; remark: listed apart in the source
Target sequence in this assay (P04629 whole entry): as above
Description: Inhibition of phsophorylated TrkA (unknown origin) assessed as inhibition of fluorescently-labelled substrate phosphorylation by CALIPER enzymatic assay

[3] = biological target: T1, High affinity nerve growth factor receptor; remark: listed apart in the source
Target sequence in this assay (P04629 33-796 limits assumed): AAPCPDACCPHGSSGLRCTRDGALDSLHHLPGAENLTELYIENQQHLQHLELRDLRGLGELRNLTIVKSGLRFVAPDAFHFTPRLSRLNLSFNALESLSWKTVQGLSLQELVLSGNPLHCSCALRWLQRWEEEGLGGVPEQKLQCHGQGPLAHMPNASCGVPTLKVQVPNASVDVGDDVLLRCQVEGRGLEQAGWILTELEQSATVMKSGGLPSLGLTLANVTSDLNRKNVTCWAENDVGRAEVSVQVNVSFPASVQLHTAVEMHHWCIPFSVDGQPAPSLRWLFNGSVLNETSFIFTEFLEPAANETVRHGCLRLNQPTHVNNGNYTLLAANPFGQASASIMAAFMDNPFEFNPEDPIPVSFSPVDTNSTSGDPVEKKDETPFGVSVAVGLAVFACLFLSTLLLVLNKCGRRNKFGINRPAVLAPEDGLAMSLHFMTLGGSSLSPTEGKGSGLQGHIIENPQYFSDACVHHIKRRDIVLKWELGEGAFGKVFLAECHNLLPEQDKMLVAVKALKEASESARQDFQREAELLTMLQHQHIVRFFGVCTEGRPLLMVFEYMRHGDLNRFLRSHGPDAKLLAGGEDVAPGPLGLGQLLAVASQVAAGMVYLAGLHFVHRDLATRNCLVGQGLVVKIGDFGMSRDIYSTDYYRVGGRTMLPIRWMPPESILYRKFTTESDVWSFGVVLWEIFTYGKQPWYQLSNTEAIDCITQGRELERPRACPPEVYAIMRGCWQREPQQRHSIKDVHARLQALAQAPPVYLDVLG
Description: Binding affinity to His-tagged TrkA (unknown origin) assessed as half life after 1 hr by SPR method

[4] = biological target: T1, High affinity nerve growth factor receptor; remark: listed apart in the source
Target sequence in this assay (P04629 whole entry): as the sequence (P04629 whole entry) above
Description: Binding affinity to His-tagged TrkA (unknown origin) after 1 hr by SPR method

[5] = biological target: T1, High affinity nerve growth factor receptor; experiment: Inhibition of purified TrkA cytoplasmic domain (unknown origin) by HTRF assay
Target sequence in this assay (P04629 whole entry): as above

[6] = Ratio of fraction unbound in plasma of Sprague-Dawley rat Chung spinal nerve ligation model assessed as reversal of mechanical hypersensitivity at 10 mg/kg, po to IC50 for human TrkA expressed in human U2OS cells; type: ADME, organism-based; set-up: dose 10 mg/kg, route oral; settings: in vivo
[7] = tested on: Plasma; experiment: Plasma concentration in Sprague-Dawley rat Chung spinal nerve ligation model assessed as reversal of mechanical hypersensitivity at 100 mg/kg, po; type: ADME, organism-based; set-up: dose 100 mg/kg, route oral; settings: in vivo
[8] = tested on: Plasma; experiment: Fraction unbound in plasma of Sprague-Dawley rat Chung spinal nerve ligation model assessed as reversal of mechanical hypersensitivity at 10 mg/kg, po; type: ADME, organism-based; set-up: dose 10 mg/kg, route oral; settings: in vivo
[9] = Ratio of fraction unbound in plasma of Complete-Freunds adjuvant-induced Sprague-Dawley rat pain model at 100 mg/kg, po after 2 hrs to IC50 for human TrkA expressed in human U2OS cells; type: ADME, organism-based; set-up: dose 100 mg/kg, route oral; settings: in vivo
[10] = Ratio of fraction unbound in plasma of Sprague-Dawley rat Chung spinal nerve ligation model assessed as reversal of mechanical hypersensitivity at 100 mg/kg, po to IC50 for human TrkA expressed in human U2OS cells; type: ADME, organism-based; set-up: dose 100 mg/kg, route oral; settings: in vivo
[11] = Plasma concentration in Complete-Freunds adjuvant-induced Sprague-Dawley rat pain model at 30 mg/kg, po after 2 hrs; type: ADME, organism-based; set-up: dose 30 mg/kg, route oral
[12] = Ratio of fraction unbound in plasma of Sprague-Dawley rat Chung spinal nerve ligation model assessed as reversal of mechanical hypersensitivity at 30 mg/kg, po to IC50 for human TrkA expressed in human U2OS cells; type: ADME, organism-based; set-up: dose 30 mg/kg, route oral; settings: in vivo
[13] = Plasma concentration in Complete-Freunds adjuvant-induced Sprague-Dawley rat pain model at 10 mg/kg, po after 2 hrs; type: ADME, organism-based; set-up: dose 10 mg/kg, route oral
[14] = tested on: Rattus norvegicus; experiment: Antiinflammatory activity in Complete-Freunds adjuvant-induced Sprague-Dawley rat pain model assessed as reversal of mechanical hypersensitivity at 100 mg/kg, po bid for 7 days; type: functional, organism-based; set-up: dose 100 mg/kg
[15] = tested on: Plasma; experiment: Fraction unbound in plasma of Complete-Freunds adjuvant-induced Sprague-Dawley rat pain model at 100 mg/kg, po after 2 hrs; type: ADME, organism-based; set-up: dose 100 mg/kg, route oral; settings: in vivo
[16] = tested on: Plasma; experiment: Plasma concentration in Sprague-Dawley rat Chung spinal nerve ligation model assessed as reversal of mechanical hypersensitivity at 10 mg/kg, po; type: ADME, organism-based; set-up: dose 10 mg/kg, route oral; settings: in vivo
[17] = tested on: Rattus norvegicus; experiment: Analgesic activity in Sprague-Dawley rat Chung spinal nerve ligation model assessed as reversal of mechanical hypersensitivity at 30 mg/kg, po relative to control; type: functional
[18] = tested on: Plasma; experiment: Fraction unbound in plasma of Complete-Freunds adjuvant-induced Sprague-Dawley rat pain model at 30 mg/kg, po after 2 hrs; type: ADME, organism-based; set-up: dose 30 mg/kg, route oral; settings: in vivo
[19] = Plasma protein binding in rat; type: ADME, cell-free; settings: read-out: PPB (converted)
[20] = Oral bioavailability in rat; type: ADME, organism-based; settings: in vivo
[21] = Ratio of fraction unbound in plasma of Complete-Freunds adjuvant-induced Sprague-Dawley rat pain model at 10 mg/kg, po after 2 hrs to IC50 for human TrkA expressed in human U2OS cells; type: ADME, organism-based; set-up: dose 10 mg/kg, route oral; settings: in vivo
[22] = Plasma concentration in Complete-Freunds adjuvant-induced Sprague-Dawley rat pain model at 100 mg/kg, po after 2 hrs; type: ADME, organism-based; set-up: dose 100 mg/kg, route oral
[23] = Clearance in rat; type: ADME, organism-based; settings: in vivo
[24] = tested on: Rattus norvegicus; experiment: Antiinflammatory activity in Complete-Freunds adjuvant-induced Sprague-Dawley rat pain model assessed as reversal of mechanical hypersensitivity at 30 mg/kg, po bid for 7 days; type: functional, organism-based; set-up: dose 30 mg/kg
[25] = tested on: Plasma; experiment: Fraction unbound in plasma of Sprague-Dawley rat Chung spinal nerve ligation model assessed as reversal of mechanical hypersensitivity at 30 mg/kg, po; type: ADME, organism-based; set-up: dose 30 mg/kg, route oral; settings: in vivo
[26] = tested on: Plasma; experiment: Fraction unbound in plasma of Complete-Freunds adjuvant-induced Sprague-Dawley rat pain model at 10 mg/kg, po after 2 hrs; type: ADME, organism-based; set-up: dose 10 mg/kg, route oral; settings: in vivo
[27] = Ratio of fraction unbound in plasma of Complete-Freunds adjuvant-induced Sprague-Dawley rat pain model at 30 mg/kg, po after 2 hrs to IC50 for human TrkA expressed in human U2OS cells; type: ADME, organism-based; set-up: dose 30 mg/kg, route oral; settings: in vivo
[28] = Half life in rat; type: ADME, organism-based; settings: in vivo
[29] = tested on: Plasma; experiment: Fraction unbound in plasma of Sprague-Dawley rat Chung spinal nerve ligation model assessed as reversal of mechanical hypersensitivity at 100 mg/kg, po; type: ADME, organism-based; set-up: dose 100 mg/kg, route oral; settings: in vivo
[30] = tested on: Plasma; experiment: Plasma concentration in Sprague-Dawley rat Chung spinal nerve ligation model assessed as reversal of mechanical hypersensitivity at 30 mg/kg, po; type: ADME, organism-based; set-up: dose 30 mg/kg, route oral; settings: in vivo
[31] = tested on: Rattus norvegicus; experiment: Analgesic activity in po dosed Sprague-Dawley rat Chung spinal nerve ligation model assessed as reversal of mechanical hypersensitivity relative to control; type: functional, organism-based

**Q.** With `CC(C)N(Cc1c[nH]c2ncccc12)C(=O)Nc1ccc(OC(F)(F)F)cc1` as the compound, how does the IC50 [1] read?
**A.** 3 nM

**Q.** And the IC50 [2]?
**A.** 11 nM

**Q.** What does the source list for `CC(C)N(Cc1cccc(-c2nccs2)c1)C(=O)Nc1ccc(OC(F)(F)F)cc1`?
**A.** T1/2 [3]: 0.1 h; IC50 [1]: 56 nM; IC50 [2]: 132 nM; Kd [4]: 63 nM

**Q.** Which IC50 [1] does the source give for `CCOc1cccc(-c2nccc3c2cc(C(=O)O)n3CCOc2ccc(OC(F)(F)F)cc2)c1` here?
**A.** 59 nM

**Q.** And the IC50 [2]?
**A.** 348 nM

**Q.** What does the source list for `Cc1cn(-c2ccc(-c3cn(CC(=O)Nc4cc(C5CC5)nn4-c4ccccc4)nn3)cc2)cn1`?
**A.** IC50 [5]: 60 nM; IC50 [1]: 9 nM

**Q.** Which results are given for `N#Cc1ccc2c(c1)cc(C(=O)O)n2CCOc1ccc(OC(F)(F)F)cc1`?
**A.** IC50 [1]: 150 nM; IC50 [2]: 118 nM

**Q.** Which IC50 [5] does the source give for `Cc1cn2cc(CNc3ncnc4ccc(N5CCC[C@@H]5c5cc(F)ccc5F)nc34)nc2s1` here?
**A.** 1.5 nM

**Q.** And the IC50 [2]?
**A.** 13 nM

**Q.** With `CC(C)(C)c1cc(NC(=O)Cn2cc(-c3ccc(-n4ccnc4)nc3)nn2)n(-c2cccnc2)n1` as the compound, how does the Ratio [6] read?
**A.** 1

**Q.** What about the concentration [7] of the same compound?
**A.** 23000 nM

**Q.** What about the “Cp(f)” value [8] of the same compound?
**A.** 5 nM

**Q.** What about the Ratio [9] of the same compound?
**A.** 16

**Q.** What about the Ratio [10] of the same compound?
**A.** 23

**Q.** What about the concentration at 2 h [11] of the same compound?
**A.** 4000 nM

**Q.** What about the Ratio [12] of the same compound?
**A.** 6

**Q.** And the concentration at 2 h [13]?
**A.** 1000 nM

**Q.** And the inhibition [14]?
**A.** Active

**Q.** And the IC50 [5]?
**A.** 9 nM

**Q.** And the “Cp(f)” value [15]?
**A.** 80 nM

**Q.** What about the T1/2 [3] of the same compound?
**A.** 1.13 h

**Q.** And the concentration [16]?
**A.** 1000 nM

**Q.** And the inhibition in vivo at 30 mg/kg [17]?
**A.** 50%

**Q.** What about the “Cp(f)” value [18] of the same compound?
**A.** 20 nM

**Q.** And the fraction unbound [19]?
**A.** 0.005

**Q.** What about the bioavailability [20] of the same compound?
**A.** 30%

**Q.** What about the Ratio [21] of the same compound?
**A.** 1

**Q.** What about the IC50 [1] of the same compound?
**A.** 7 nM

**Q.** What about the Kd [4] of the same compound?
**A.** 0.94 nM

**Q.** What about the concentration at 2 h [22] of the same compound?
**A.** 16000 nM

**Q.** And the clearance [23]?
**A.** 16 mL/min/kg

**Q.** And the inhibition [24]?
**A.** Active

**Q.** What about the “Cp(f)” value [25] of the same compound?
**A.** 34 nM

**Q.** What about the “Cp(f)” value [26] of the same compound?
**A.** 5 nM

**Q.** What about the Ratio [27] of the same compound?
**A.** 4

**Q.** And the half-life [28]?
**A.** 2.6 h

**Q.** What about the “Cp(f)” value [29] of the same compound?
**A.** 115 nM

**Q.** And the concentration [30]?
**A.** 6700 nM

**Q.** What does the source list for `O=C(O)c1cc2cnccc2n1CCOc1ccc(OC(F)(F)F)cc1`?
**A.** IC50 [1]: 15800 nM; IC50 [2]: 12300 nM

**Q.** With `O=C(O)c1cc2cc(-c3cc[nH]n3)ccc2n1CCOc1ccc(OC(F)(F)F)cc1` as the compound, how does the IC50 [1] read?
**A.** 29 nM

**Q.** And the IC50 [2]?
**A.** 51 nM

**Q.** With `COc1ccc2cc([C@H](C)C(=O)O)ccc2c1` as the compound, how does the inhibition [24] read?
**A.** Active

**Q.** Which IC50 [5] does the source give for `CN1CCN(c2ccc(Nc3ncnc4ccc(NCc5cccc(Cl)c5)nc34)cc2)CC1` here?
**A.** 11 nM

**Q.** And the IC50 [2]?
**A.** 1690 nM

**Q.** What about the Kd [4] of the same compound?
**A.** 63 nM

**Q.** What does the source list for `CCOc1cccc(-c2nccc3c2cc(C(=O)O)n3CCOc2ccc(Cl)cc2)c1`?
**A.** T1/2 [3]: 2.13 h; IC50 [1]: 200 nM; IC50 [2]: 653 nM; Kd [4]: 3.5 nM

**Q.** For `CCOc1cccc(-c2nccc3c2cc(C(=O)O)n3CCOc2ccccc2)c1`, which IC50 [1] is on record?
**A.** 109 nM

**Q.** What about the IC50 [2] of the same compound?
**A.** 2070 nM

**Q.** For `CC(C)C[C@H](CN)CC(=O)O`, which inhibition [31] is on record?
**A.** Active

**Q.** Which IC50 [2] does the source give for `O=C(NCc1cccc(-c2nccs2)c1)Nc1ccc(OC(F)(F)F)cc1` here?
**A.** > 100000 nM

**Q.** Which IC50 [5] does the source give for `c1cncc(CNc2ccc3ncnc(Nc4ccc(N5CCOCC5)cc4)c3n2)c1` here?
**A.** 997 nM
